The results in this text go back to patent US8163724B2, “Glucocorticosteroids, processes for their preparation, pharmaceutical compositions containing them and their use in therapy” (AstraZeneca AB, priority 2007, dated 2012).

The target of the experiment is T1, recombinant human GR (Homo sapiens, UniProt P04150).
T1 construct: purchased Panvera/Invitrogen P2812 (kit P2893)
T1 sequence (P04150 1-777): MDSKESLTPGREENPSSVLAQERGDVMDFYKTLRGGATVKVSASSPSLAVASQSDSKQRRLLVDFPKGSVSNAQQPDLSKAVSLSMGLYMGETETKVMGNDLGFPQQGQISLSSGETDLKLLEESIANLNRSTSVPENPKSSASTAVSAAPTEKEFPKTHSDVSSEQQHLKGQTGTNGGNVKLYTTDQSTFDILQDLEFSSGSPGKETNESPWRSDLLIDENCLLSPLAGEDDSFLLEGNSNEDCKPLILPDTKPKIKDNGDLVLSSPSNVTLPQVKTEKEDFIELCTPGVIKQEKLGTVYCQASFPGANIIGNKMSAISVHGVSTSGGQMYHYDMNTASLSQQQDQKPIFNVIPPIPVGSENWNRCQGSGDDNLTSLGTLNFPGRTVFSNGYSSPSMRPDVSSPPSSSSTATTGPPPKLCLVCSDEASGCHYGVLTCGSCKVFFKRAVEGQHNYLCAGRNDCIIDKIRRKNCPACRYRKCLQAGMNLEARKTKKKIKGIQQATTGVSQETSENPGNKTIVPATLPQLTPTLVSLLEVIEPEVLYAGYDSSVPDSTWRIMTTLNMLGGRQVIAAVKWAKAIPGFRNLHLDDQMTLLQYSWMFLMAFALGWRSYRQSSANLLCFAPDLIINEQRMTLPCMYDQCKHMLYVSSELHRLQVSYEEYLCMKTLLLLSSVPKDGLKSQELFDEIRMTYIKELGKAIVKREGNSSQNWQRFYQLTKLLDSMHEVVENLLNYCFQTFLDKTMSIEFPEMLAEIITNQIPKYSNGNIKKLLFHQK
The experiment can be described thus: Human Glucocorticoid Receptor (GR) Assay (fluorescence polarization, Panvera/Invitrogen kit). It counts as binding. To be noted: fluorescence polarization; GS Red tracer; 2 hours at room temperature; 100% control 10 μM Dexamethasone; read-out: Inhibition of GR binding, IC50. In short, it runs like this: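 Fluorescence polarization competition with recombinant GR and GS Red fluorescent ligand plus stabilizing peptide and DTT in potassium phosphate/sodium molybdate/EDTA buffer with DMSO. Incubated 2 hours at room temperature in the dark; 0% control DMSO, 100% control 10 μM dexamethasone.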
A general note: In fluorescence polarisation assays a small probe gives low polarisation when free and higher when bound to something large.
In general, IC50 refers to the concentration that inhibits the measured activity by half. For the compound `C[C@]12Cc3cnn(-c4ccc(F)nc4)c3C=C1CC[C@@H]1[C@@H]2[C@@H](O)C[C@@]2(C)[C@H]1CC[C@]2(OC(=O)[C@H]1CCCO1)C(=O)SCC#N` [Example 185, (1R,3aS,3bS,10aR,10bS,11S,12aS)-1-{[(Cyanomethyl)sulfanyl]carbonyl}-7-(6-fluoropyridin-3-yl)-11-hydroxy-10a,12a-dimethyl-1,2,3,3a,3b,4,5,7,10,10a,10b,11,12,12a-tetradecahydrocyclopenta[5,6]naphtho[1,2-f]indazol-1-yl (2R)-tetrahydrofuran-2-carboxylate], the IC50 stood at 2.7 nM.
For the compound `C[C@]12Cc3cnn(-c4ccc(F)nc4)c3C=C1CC[C@@H]1[C@@H]2[C@@H](O)C[C@@]2(C)[C@H]1CC[C@]2(OC(=O)[C@H]1CCCO1)C(=O)SCCO` [Example 186, (1R,3aS,3bS,10aR,10bS,11S,12aS)-7-(6-Fluoropyridin-3-yl)-11-hydroxy-1-{[(2-hydroxyethyl)sulfanyl]carbonyl}-10a,12a-dimethyl-1,2,3,3a,3b,4,5,7,10,10a,10b,11,12,12a-tetradecahydrocyclopenta[5,6]naphtho[1,2-f]indazol-1-yl (2R)-tetrahydrofuran-2-carboxylate], the IC50 was 2.3 nM.
The figure for `C[C@]12Cc3cnn(-c4ccc(F)nc4)c3C=C1CC[C@@H]1[C@@H]2[C@@H](O)C[C@@]2(C)[C@H]1CC[C@]2(OC(=O)[C@H]1CCCO1)C(=O)SCF` [Example 187, (1R,3aS,3bS,10aR,10bS,11S,12aS)-1-{[(Fluoromethyl)sulfanyl]carbonyl}-7-(6-fluoropyridin-3-yl)-11-hydroxy-10a,12a-dimethyl-1,2,3,3a,3b,4,5,10,10a,10b,11,12,12a-tetradecahydrocyclopenta[5,6]naphtho[1,2-f]indazol-1-yl (2R)-tetrahydrofuran-2-carboxylate] is 2.3 nM; for `CSC(=O)[C@@]1(OC(=O)[C@H]2CCCO2)CC[C@H]2[C@@H]3CCC4=Cc5c(cnn5-c5ccc(F)nc5)C[C@]4(C)[C@H]3[C@@H](O)C[C@@]21C` [Example 188, (1R,3aS,3bS,10aR,10bS,11S,12aS)-7-(6-Fluoropyridin-3-yl)-11-hydroxy-10a,12a-dimethyl-1-[(methylsulfanyl)carbonyl]-1,2,3,3a,3b,4,5,7,10,10a,10b,11,12,12a-tetradecahydrocyclopenta[5,6]naphtho[1,2]-indazol-1-yl (2R)-tetrahydrofuran-2-carboxylate] it is 1.2 nM.
For `C[C@]12Cc3cnn(-c4cnccn4)c3C=C1CC[C@@H]1[C@@H]2[C@@H](O)C[C@@]2(C)[C@H]1CC[C@]2(OC(=O)C1CC1)C(=O)SCC#N` [Example 189, (1R,3aS,3bS,10aR,10bS,11S,12aS)-1-{[(Cyanomethyl)sulfanyl]carbonyl}-11-hydroxy-10a,12a-dimethyl-7-pyrazin-2-yl-1,2,3,3a,3b,4,5,7,10,10a,10b,11,12,12a-tetradecahydrocyclopenta[5,6]naphtho[1,2-f]indazol-1-yl cyclopropanecarboxylate], the IC50 was found to be 5 nM.
The figure for `C[C@]12Cc3cnn(-c4cnccn4)c3C=C1CC[C@@H]1[C@@H]2[C@@H](O)C[C@@]2(C)[C@H]1CC[C@]2(OC(=O)C1CC1)C(=O)SCCO` [Example 190, (1R,3aS,3bS,10aR,10bS,11S,12aS)-11-Hydroxy-{[(2-hydroxyethyl)sulfanyl]carbonyl}-10a,12a-dimethyl-7-pyrazin-2-yl-1,2,3,3a,3b,4,5,7,10,10a,10b,11,12,12a-tetradecahydrocyclopenta[5,6]naphtho[1,2-f]indazol-1-yl cyclopropane carboxylate] is 3.7 nM.
`C[C@]12Cc3cnn(-c4ccc(F)cc4)c3C=C1CC[C@H]1[C@@H]3CC[C@](OC(=O)c4ccco4)(C(=O)SCC#N)[C@@]3(C)C[C@H](O)[C@@]12F` [Example 193, (1R,3aS,3bS,10aS,10bR,11S,12aS)-1-{[(Cyanomethyl)sulfanyl]carbonyl}-10b-fluoro-7-(4-fluorophenyl)-11-hydroxy-10a,12a-dimethyl-1,2,3,3a,3b,4,5,7,10,10a,11,12,12a-tetradecahydrocyclopenta[5,6]naphtho[1,2-f]indazol-1-yl furan-2-carboxylate]: the IC50 worked out at 3.3 nM.
For the compound `C[C@]12Cc3cnn(-c4ccc(F)cc4)c3C=C1CC[C@H]1[C@@H]3CC[C@](OC(=O)c4ccco4)(C(=O)SCF)[C@@]3(C)C[C@H](O)[C@@]12F` [Example 194, (1R,3aS,3bS,10aS,10bR,11S,12aS)-1-{[(Fluoromethyl)sulfanyl]carbonyl}-10b-fluoro-7-(4-fluorophenyl)-11-hydroxy-10a,12a-dimethyl-1,2,3,3a,3b,4,5,7,10,10a,10b,11,12,12a-tetradecahydrocyclopenta[5,6]naphtho[1,2-f]indazol-1-yl furan-2-carboxylate], the IC50 was determined as 2.3 nM.
The figure for `C[C@]12Cc3cnn(-c4ccc(F)cc4)c3C=C1CC[C@H]1[C@@H]3CC[C@](OC(=O)C4CC4)(C(=O)SCC#N)[C@@]3(C)C[C@H](O)[C@@]12F` [Example 195, (1R,3aS,3bS,10aS,10bR,11S,12aS)-1-{[(Cyanomethyl)sulfanyl]carbonyl}-10b-fluoro-7-(4-fluorophenyl)-11-hydroxy-10a,12a-dimethyl-1,2,3,3a,3b,4,5,7,10,10a,10b,11,12,12a-tetradecahydrocyclopenta[5,6]naphtho[1,2]-indazol-1-yl cyclopropanecarboxylate] is 4.7 nM; for `C[C@]12Cc3cnn(-c4ccc(F)cc4)c3C=C1CC[C@H]1[C@@H]3CC[C@](OC(=O)C4CC4)(C(=O)SCF)[C@@]3(C)C[C@H](O)[C@@]12F` [Example 196, (1R,3aS,3bS,10aS,10bR,11S,12aS)-1-{[(Fluoromethyl)sulfanyl]carbonyl}-10b-fluoro-7-(4-fluorophenyl)-11-hydroxy-10a,12a-dimethyl-1,2,3,3a,3b,4,5,7,10,10a,10b,11,12,12a-tetradecahydrocyclopenta[5,6]naphtho[1,2-f]indazol-1-yl cyclopropanecarboxylate] it is 14 nM.
For the compound `COCC(=O)O[C@]1(C(=O)SCC#N)CC[C@H]2[C@@H]3CCC4=Cc5c(cnn5-c5ccc(F)cc5)C[C@]4(C)[C@@]3(F)[C@@H](O)C[C@@]21C` [Example 197, (1R,3aS,3bS,10aS,10bR,11S,12aS)-1-{[(Cyanomethyl)sulfanyl]carbonyl}-10b-fluoro-7-(4-fluorophenyl)-11-hydroxy-10a,12a-dimethyl-1,2,3,3a,3b,4,5,7,10,10a,10b,11,12,12a-tetradecahydrocyclopenta[5,6]naphtho[1,2-f]indazol-1-yl methoxyacetate], the IC50 came to 3.3 nM.
Consider `COCC(=O)O[C@]1(C(=O)SCF)CC[C@H]2[C@@H]3CCC4=Cc5c(cnn5-c5ccc(F)cc5)C[C@]4(C)[C@@]3(F)[C@@H](O)C[C@@]21C` [Example 198, (1R,3aS,3bS,10aS,10bR,11S,12aS)-1-{[(Fluoromethyl)sulfanyl]carbonyl}-10b-fluoro-7-(4-fluorophenyl)-11-hydroxy-10a,12a-dimethyl-1,2,3,3a,3b,4,5,7,10,10a,10b,11,12,12a-tetradecahydrocyclopenta[5,6]naphtho[1,2-f]indazol-1-yl methoxyacetate], for which the IC50 came to 2.6 nM.
`CCC(=O)O[C@]1(C(=O)SCC#N)CC[C@H]2[C@@H]3CCC4=Cc5c(cnn5-c5ccc(F)cc5)C[C@]4(C)[C@@]3(F)[C@@H](O)C[C@@]21C` [Example 199, (1R,3aS,3bS,10aS,10bR,11S,12aS)-1-{[(Cyanomethyl)sulfanyl]carbonyl}-10b-fluoro-7-(4-fluorophenyl)-11-hydroxy-10a,12a-dimethyl-1,2,3,3a,3b,4,5,7,10,10a,10b,11,12,12a-tetradecahydrocyclopenta[5,6]naphtho[1,2-f]indazol-1-yl propanoate]: the IC50 is 4.6 nM.
In the case of `CCC(=O)O[C@]1(C(=O)SCF)CC[C@H]2[C@@H]3CCC4=Cc5c(cnn5-c5ccc(F)cc5)C[C@]4(C)[C@@]3(F)[C@@H](O)C[C@@]21C` [Example 200, (1R,3aS,3bS,10aS,10bR,11S,12aS)-1-{[(Fluoromethyl)sulfanyl]carbonyl}-10b-fluoro-7-(4-fluorophenyl)-11-hydroxy-10a,12a-dimethyl-1,2,3,3a,3b,4,5,7,10,10a,10b,11,12,12a-tetradecahydrocyclopenta[5,6]naphtho[1,2-f]indazol-1-yl propanoate], the IC50 came out at 14 nM.
